Consider 16 compounds from US10167299B2, “1-(3-aminopropyl) substituted cyclic amine compounds, preparation method therefor, and pharmaceutical compositions and uses thereof” (SHANGHAI INSTITUTE OF MATERIA MEDICA, CHINESE ACADEMY OF …, priority 2013, dated 2019).

Values after ≈ are worked out from the molar mass of the structure shown. Like-named read-outs stand apart in the source and are kept apart here.

The target in one data set is CCR5 (Homo sapiens (Human), UniProt P51681). As to the kind of experiment: Calcium flux inhibition experiment. The data set is classed as cell-based. Conditions: for IC50: HEK293/CCR5-Gα16 cell line, calcium flux, read-out: CCR5 IC50; for calcium influx inhibition effect in words, versus positive control compounds: conclusion from Table 1. A general note: Calcium assays in cells follow changes in intracellular calcium, usually with a dye or a luminescent sensor.

The next data set has as its system CCR5 protein. Briefly: Thermal stability of protein test (CPM-assay). The format is binding. The note with it: for Tm (° C.): thermal stability of CCR5 protein with compound, CPM dye. An excerpt: Experimental theory: many cysteines are present in CCR5 protein sequence. Cysteines located in loop region form disulfide bonds to stabilize the tertiary structure of the protein. Some free cysteines in reduced state are located in the transmembrane region. Under excitation by incident light of 387 nm, the combination of free sulfhydryl and fluorescent dye CPM can emit excitation light of 436 nm. […] The free sulfhydryls originally located in the transmembrane region expose and combine with the fluorescent dye. And then the detector will detect changes in signal enhancement. Therefore, the thermal stability of membrane proteins can be determined according to the temperature (Tm) at the midpoint of changes in signal intensity.
Experimental steps: Upon preliminary purification, the obtained protein solution was transferred into a small concentration tube (100 kd, 500 ul) for concentration (1000 rcf, 12 min, 4° C.). After centrifugation, the concentration tube was taken out and flicked to prevent protein coagulation due to high local concentration. The final concentrated volume was about 50 μl. 117 μl of purified solution (volume is suitable to make the total volume up to 120 μl), 1 μl fluorescent dye cpm (in-house prepared) and 2 μl of concentrated protein solution (the amount of added protein is 3-5 μg according to the calculated concentration of the protein solution and the concentrated volume) were added to 2 ml Ependorf tube and incubated at room temperature for 20 min. And then the mixture was added to the cuvette (Qwan) and put in the testing equipment Cary, wherein the surface of the frosted glass faced out. The temperature was set in the range of 4-90° C. with 1° C. increase per minute and the program was run. Tm value can be obtained by processing the data and graph with a mapping software and can be used to compare the difference of protein thermal stability under different conditions.

The nature of data set [1]: Cytotoxicity (CC50) in TZM-bl cells. The data set is classed as cell-based. Conditions: human.
The subject of another data set is HIV-1SF162 virus strain. As to the kind of experiment: Inhibition activity on TZM-bl cells infected with HIV-1SF162. The note with it: for EC50: Human immunodeficiency virus 1, TZM-bl; for therapeutic index (TI): TZM-bl cells infected with HIV-1SF162.
The mark [2] stands for this setting: TZM-bl cells (Table 3), read-out: CC50.

CCR5, sequence (P51681 whole entry): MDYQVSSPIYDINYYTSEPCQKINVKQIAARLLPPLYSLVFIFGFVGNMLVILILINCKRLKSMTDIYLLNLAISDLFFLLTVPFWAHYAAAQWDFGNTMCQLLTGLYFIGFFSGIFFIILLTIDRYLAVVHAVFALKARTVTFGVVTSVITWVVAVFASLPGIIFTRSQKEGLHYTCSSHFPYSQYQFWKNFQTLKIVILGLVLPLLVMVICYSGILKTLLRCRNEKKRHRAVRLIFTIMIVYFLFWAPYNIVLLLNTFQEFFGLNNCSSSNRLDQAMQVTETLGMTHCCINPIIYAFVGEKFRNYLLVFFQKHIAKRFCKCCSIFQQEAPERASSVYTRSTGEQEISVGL

A word on the IC50: it is the concentration needed to halve the response being measured. One may read the CC50 as the concentration that lowers cell viability or growth by half. By EC50 is commonly meant the concentration at which the effect is half-maximal. Take `Cc1nnc(C(C)C)n1C1CCN(CC[C@H](NC(=O)C2CCCCC2)c2cccs2)CC1` [Compound 15, N-[(1S)-3-[4-(3-isopropyl-5-methyl-4H-1,2,4-triazol-4-yl)-piperidin-1-yl]-1-(thiophen-2-yl)propyl]cyclohexane-1-carboxamide]: on CCR5, the IC50 turned out to be 0.00922 µM and the “calcium influx inhibition effect in words, versus positive control compounds” value was “comparable to the positive control compounds”. Moreover, in the data set with CCR5 protein, the “Tm (° C.)” value turned out to be 64.30 °C. Moreover, the half-maximal cytotoxic concentration (CC50) in data set [1] (setting [2]) was over 200 µg/mL. Moreover, in the data set with HIV-1SF162 virus strain, the concentration giving a half-maximal response (EC50) turned out to be 0.316 µg/mL (≈ 0.69 µM) and the “therapeutic index (TI)” value is on record as over 632.87.

With `CC(=O)NC(CCN1CCC(n2c(C)nnc2C(C)C)CC1)c1cccs1` (stereo not shown) [Compound 2, N-[3-[4-(3-isopropyl-5-methyl-4H-1,2,4-triazol-4-yl)-piperidin-1-yl]-1-(thiophen-2-yl)propyl]acetamide], on CCR5, the IC50 worked out at 0.0326 µM. Moreover, the “Tm (° C.)” value with CCR5 protein turned out to be 65.23 °C. Besides, the CC50 in data set [1] (setting [2]) is over 100 µg/mL. In the data set with HIV-1SF162 virus strain, the EC50 is 0.326 µg/mL (≈ 0.837 µM) and the “therapeutic index (TI)” value is listed as over 306.75.

On to `Cc1nnc(C(C)C)n1C1CCN(CC[C@H](NC(=O)C2CCC(F)(F)CC2)c2cccnc2)CC1` [Compound 5, 4,4-difluoro-N-[(1S)-3-[4-(3-isopropyl-5-methyl-4H-1,2,4-triazol-4-yl)-piperidin-1-yl]-1-(pyridin-3-yl)propyl]cyclohexane-1-carboxamide], for which the concentration for half-maximal inhibition (IC50) on CCR5 is 0.0297 µM. Further, in the data set on CCR5 protein, the “Tm (° C.)” value turned out to be 57.31 °C.

Consider `Cc1nnc(C(C)C)n1C1CC2CCC(C1)N2CC[C@H](NC(=O)C1CCCC1)c1ccsc1` (stereo partly drawn) [Compound 26, N-[(1S)-3-[exo-3(3-isopropyl-5-methyl-4H-1,2,4-triazol-4-yl)-8-azabicyclo[3.2.1]octane-8-yl]-1-(thiophen-3-yl)propyl]cyclopentane-1-carboxamide], for which, on CCR5, the IC50 was 0.00506 µM and the “calcium influx inhibition effect in words, versus positive control compounds” value is recorded as “better than the positive control compounds”. Moreover, the “protein stability effect in words, versus positive control compound” value with CCR5 protein (conclusion from Table 2) is “comparable with the positive control compound”. The “Tm (° C.)” value with CCR5 protein was 71.02 °C. This compound showed a CC50 in data set [1] of over 200 µg/mL. In addition, in the data set with HIV-1SF162 virus strain, the EC50 was determined as 0.00558 µg/mL (≈ 0.0119 µM) and the “therapeutic index (TI)” value is over 35842.29. The “cytotoxicity in vitro and therapeutic index in words, versus positive control compound” value with HIV-1SF162 virus strain (TZM-bl cells infected with HIV-1SF162, conclusion from Table 3) is “better than positive control compound”.

For `Cc1nnc(C(C)C)n1C1CCN(CC[C@H](NC(=O)C2CCCCC2)c2ccsc2)CC1` [Compound 23, N-[(1S)-3-[4-(3-isopropyl-5-methyl-4H-1,2,4-triazol-4-yl)-piperidin-1-yl]-1-(thiophen-3-yl)propyl]cyclohexane-1-carboxamide], at CCR5, the IC50 is 0.0273 µM. Also, the “Tm (° C.)” value in the data set on CCR5 protein is 63.90 °C. The CC50 in data set [1] (setting [2]) is over 200 µg/mL. Further, in the data set on HIV-1SF162 virus strain, the response was half-maximal at 0.06 µg/mL (≈ 0.131 µM) (EC50) and the “therapeutic index (TI)” value is over 3332.78.

For `CC(=O)NC(CCN1C2CCC1CC(n1c(C)nnc1C(C)C)C2)c1cccs1` (stereo not drawn) [Compound 4, N-[3-[exo-3-(3-isopropyl-5-methyl-4H-1,2,4-triazol-4-yl)-8-azabicyclo[3.2.1]octane-8-yl]-1-(thiophen-2-yl)propyl]acetamide], the IC50 on CCR5 is 0.015 µM. In addition, in the data set with CCR5 protein, the “Tm (° C.)” value came out at 65.64 °C. The CC50 in data set [1] (setting [2]) amounted to 42.8 µg/mL (≈ 103 µM). In addition, in the data set on HIV-1SF162 virus strain, the response was half-maximal at 1.46 µg/mL (≈ 3.51 µM) (EC50) and the “therapeutic index (TI)” value amounted to 29.29.

`Cc1nnc(C(C)C)n1C1CCN(CC[C@H](NC(=O)C2CCCCC2)c2cccnc2)CC1` [Compound 7, N-[(1S)-3-[4-(3-isopropyl-5-methyl-4H-1,2,4-triazol-4-yl)-piperidin-1-yl]-1-(pyridin-3-yl)propyl]cyclohexane-1-carboxamide]: on CCR5, the IC50 worked out at 0.0352 µM. For the same compound, the “Tm (° C.)” value in the data set on CCR5 protein stood at 57.21 °C. For the same compound, in data set [1] (setting [2]), the CC50 was over 100 µg/mL. Further, in the data set with HIV-1SF162 virus strain, the EC50 amounted to 2.34 µg/mL (≈ 5.17 µM) and the “therapeutic index (TI)” value is 50.31.

Turning to `Cc1nnc(C(C)C)n1C1CC2CCC(C1)N2CC[C@H](NC(=O)C1CCCCC1)c1ccsc1` (stereo partly shown) [Compound 24], the 50% inhibitory concentration (IC50) at CCR5 was 0.0446 µM. Besides, the “Tm (° C.)” value in the data set with CCR5 protein stood at 62.31 °C.

As for `Cc1nnc(C(C)C)n1C1CCN(CC[C@H](NC(=O)C2CCC(F)(F)CC2)c2ccsc2)CC1` [Compound 21, 4,4-difluoro-N-[(1S)-3-[4-(3-isopropyl-5-methyl-4H-1,2,4-triazol-4-yl)-piperidin-1-yl]-1-(thiophen-3-yl)propyl]cyclohexane-1-carboxamide], at CCR5, the IC50 is 0.0119 µM and the “calcium influx inhibition effect in words, versus positive control compounds” value is given as “comparable to the positive control compounds”. For the same compound, the “Tm (° C.)” value in the data set with CCR5 protein amounted to 64.68 °C. In addition, in data set [1] (setting [2]), the CC50 was over 200 µg/mL. In the data set on HIV-1SF162 virus strain, the concentration for a half-maximal effect (EC50) stood at 0.15 µg/mL (≈ 0.304 µM) and the “therapeutic index (TI)” value is recorded as over 1333.96.

Take `Cc1nnc(C(C)C)n1C1CCN(CC[C@H](NC(=O)C2CCCC2)c2cccnc2)CC1` [Compound 9, N-[(1S)-3-[4-(3-isopropyl-5-methyl-4H-1,2,4-triazol-4-yl)-piperidin-1-yl]-1-(pyridin-3-yl)propyl]cyclopentane-1-carboxamide]: at CCR5, the IC50 came to 0.0793 µM. Besides, the “Tm (° C.)” value in the data set on CCR5 protein was determined as 61.32 °C. Further, in data set [1] (setting [2]), the CC50 was over 100 µg/mL. For the same compound, in the data set with HIV-1SF162 virus strain, the EC50 stood at 1.81 µg/mL (≈ 4.13 µM) and the “therapeutic index (TI)” value was 55.42.

For the compound `Cc1nnc(C(C)C)n1C1CCN(CC[C@H](NC(=O)C2CCC(F)(F)CC2)c2cccs2)CC1` [Compound 13, 4,4-difluoro-N-[(1S)-3-[4-(3-isopropyl-5-methyl-4H-1,2,4-triazol-4-yl)-piperidin-1-yl]-1-(thiophen-2-yl)propyl]cyclohexane-1-carboxamide], on CCR5, the 50% inhibitory concentration (IC50) turned out to be 0.0034 µM and the “calcium influx inhibition effect in words, versus positive control compounds” value is listed as “better than the positive control compounds”. Besides, the “Tm (° C.)” value with CCR5 protein was 65.32 °C. Further, in data set [1] (setting [2]), the CC50 was over 100 µg/mL. Also, in the data set with HIV-1SF162 virus strain, the EC50 worked out at 0.183 µg/mL (≈ 0.371 µM) and the “therapeutic index (TI)” value was over 1093.14.

Turning to `Cc1nnc(C(C)C)n1C1CCN(CC[C@H](NC(=O)C2CCCC2)c2ccsc2)CC1` [Compound 25, N-[(1S)-3-[4-(3-isopropyl-5-methyl-4H-1,2,4-triazol-4-yl)-piperidin-1-yl]-1-(thiophen-3-yl)propyl]cyclopentane-1-carboxamide], the IC50 at CCR5 is 0.0379 µM. The “Tm (° C.)” value in the data set on CCR5 protein was 62.31 °C. In addition, the CC50 in data set [1] (setting [2]) is over 200 µg/mL. Also, in the data set with HIV-1SF162 virus strain, the EC50 came out at 0.168 µg/mL (≈ 0.379 µM) and the “therapeutic index (TI)” value is on record as over 1190.41.

Regarding `Cc1nnc(C(C)C)n1C1CC2CCC(C1)N2CC[C@H](NC(=O)C1CCCC1)c1cccnc1` (stereo partly drawn) [Compound 10, N-[(1S)-3-[exo-3-(3-isopropyl-5-methyl-4H-1,2,4-triazol-4-yl)-8-azabicyclo[3.2.1]octane-8-yl]-1-(pyridin-3-yl)propyl]cyclopentane-1-carboxamide], at CCR5, the IC50 amounted to 0.0366 µM. In addition, the “Tm (° C.)” value in the data set with CCR5 protein was 63.21 °C. The same compound yielded a CC50 in data set [1] of over 100 µg/mL. Besides, in the data set on HIV-1SF162 virus strain, the midpoint of the response, the EC50, lay at 1.42 µg/mL (≈ 3.06 µM) and the “therapeutic index (TI)” value is over 70.42.

Take `CCC1CCC(C(=O)N[C@@H](CCN2C3CCC2CC(n2c(C)nnc2C(C)C)C3)c2cccs2)CC1` (stereo partly shown) [Compound 19]: the IC50 at CCR5 was 0.0215 µM. Also, the “Tm (° C.)” value in the data set on CCR5 protein was determined as 69.20 °C. In data set [1], half-maximal cytotoxicity (CC50) was put at 85.7 µg/mL (≈ 168 µM). Further, in the data set with HIV-1SF162 virus strain, it took 0.00959 µg/mL (≈ 0.0187 µM) to reach a half-maximal effect (EC50) and the “therapeutic index (TI)” value was found to be 8940.56.

Turning to `Cc1nnc(C(C)C)n1C1CCN(CCC(NC(=O)C2CCC(F)(F)CC2)c2cccs2)CC1` (stereo not shown) [Compound 1, 4,4-difluoro-N-[3-[4-(3-isopropyl-5-methyl-4H-1,2,4-triazol-4-yl)-piperidin-1-yl]-1-(thiophen-2-yl)propyl]cyclohexane-1-carboxamide], the 50% inhibitory concentration (IC50) on CCR5 was 0.0366 µM. Further, in the data set on CCR5 protein, the “Tm (° C.)” value was 60.59 °C. Also, the 50% cytotoxic concentration (CC50) in data set [1] (setting [2]) was over 100 µg/mL. For the same compound, in the data set with HIV-1SF162 virus strain, the EC50 came out at 0.29 µg/mL (≈ 0.587 µM) and the “therapeutic index (TI)” value is reported as over 340.14.

For `CCC(=O)N1CCc2c(nc(C)n2C2CC3CCC(C2)N3CC[C@H](NC(C)=O)c2ccc(F)s2)C1` (stereo partly drawn) [Compound 134, N-{(1S)-3-[(3-endo)-3-(5-propionyl-2-methyl-4,5,6,7-tetrahydro-1H-imidazo[4,5-c]pyridin-1-yl)-8-azabicyclo[3.2.1]octane-8-yl]-1-(5-fluorothiophen-2-yl)-propyl}acetamide], the 50% inhibitory concentration (IC50) at CCR5 amounted to 0.0221 µM. This compound also came in with a CC50 in data set [1] of over 200 µg/mL. In the data set on HIV-1SF162 virus strain, a half-maximal effect (EC50) was put at 0.113 µg/mL (≈ 0.225 µM) and the “therapeutic index (TI)” value is recorded as over 1772.41.
